In US5436254A, “Carbostyril derivatives” (Otsuka Pharmaceutical Company, Ltd., priority 1989, dated 1995):
pIC50: −log10 of the molar value. Structures can show the parent of a compound that is named as a salt.

Each compound was assayed against V1 receptor (Rattus norvegicus, UniProt P30560) (assay: biochemical). Settings: not given.
V1 receptor, sequence (P30560 whole entry): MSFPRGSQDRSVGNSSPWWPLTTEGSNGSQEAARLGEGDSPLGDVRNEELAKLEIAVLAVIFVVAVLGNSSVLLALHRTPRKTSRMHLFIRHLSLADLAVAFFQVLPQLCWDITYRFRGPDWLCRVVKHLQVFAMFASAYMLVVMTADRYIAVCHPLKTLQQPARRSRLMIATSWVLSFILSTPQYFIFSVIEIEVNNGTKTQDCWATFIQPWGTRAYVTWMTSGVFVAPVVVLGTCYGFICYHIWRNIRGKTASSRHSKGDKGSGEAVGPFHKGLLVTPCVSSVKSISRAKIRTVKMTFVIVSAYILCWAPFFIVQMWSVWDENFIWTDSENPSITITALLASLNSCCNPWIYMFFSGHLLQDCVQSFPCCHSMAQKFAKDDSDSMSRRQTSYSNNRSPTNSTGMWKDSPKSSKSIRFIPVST
Assay type: binding
`Nc1ccc(C(=O)NCCCCCOc2ccc(C(=O)N3CCC(N4C(=O)CCc5ccccc54)CC3)cc2)cc1` [Example 262, 1-{1-(4-[5-(4-Aminobenzoyl)aminopentyloxy]benzoyl)-4-piperidinyl}-3,4-dihydrocarbostyril] was tested, and the pIC50 was 7.03. `C=CCOCCCOc1ccc(C(=O)N2CCC(N3C(=O)CCc4ccccc43)CC2)cc1` [Example 87, 1-(1-[4-(3-Allyloxypropoxy)benzoyl]-4-piperidinyl}-3,4-dihydrocarbostyril] showed a pIC50 of 6.28. Work on `O=C(c1ccc(OC2CCCCC2)cc1)N1CCC(N2C(=O)CCc3ccccc32)CC1` [Example 99, 1-[1-(4-Cyclohexyloxybenzoyl)-4-piperidinyl]3,4-dihydrocarbostyril] yielded a pIC50 of 6.02. With `O=C(OCCCCOc1ccc(C(=O)N2CCC(N3C(=O)CCc4ccccc43)CC2)cc1)N1CCN(Cc2ccccc2)CC1` [Example 161, 1-{1-[4-[4-(4-Benzyl-1-piperazinyl)carbonyloxybutoxy]benzoyl]-4-piperidinyl}-3,4-dihydrocarbostyril] the pIC50 was 6.35. Compound `O=C(c1ccc(OCCCCC(O)CN2CCN(Cc3ccccc3)CC2)cc1)N1CCC(N2C(=O)CCc3ccccc32)CC1` (centres unmarked) [Example 172, 1-(1-[4-(5-Hydroxy-6-(4-benzyl-1-piperazinyl)hexyloxy]benzoyl]-4-piperidinyl)-3,4-dihydrocarbostyril.dioxalate] has a pIC50 of 7.37. With `CC(C)[C@H](NC(=O)CCCCCOc1ccc(C(=O)N2CCC(N3C(=O)CCc4ccccc43)CC2)cc1)C(N)=O` [Example 147, 1-{1-[4-{5-[1-(S)-Carbamoyl-2-methyl]propylaminocarbonylpentyloxy}benzoyl]-4-piperidinyl}-3,4-dihydrocarbostyril] the pIC50 was 7.01. `COC1(CNCCCCCCOc2ccc(C(=O)N3CCC(N4C(=O)CCc5ccccc54)CC3)cc2)OCC(O)C(O)C1O` (centres unmarked) [Example 267, 1-{1-(4-[6-(N-(2-Methoxy-3,4,5-trihydroxytetrahydropyran-2-yl)methylamino)hexyloxy]benzoyl)-4-piperidinyl}-3,4-dihydrocarbostyril] gave a pIC50 of 7.09. `CCN(CC)CC(O)CCCCCCOc1ccc(C(=O)N2CCC(N3C(=O)CCc4ccccc43)CC2)cc1` (centres unmarked) [Example 184, 1-{1-[4-(7-Hydroxy-8-diethylaminooctyloxy)benzoyl]-4-piperidinyl}-3,4-dihydrocarbostyril] gave a pIC50 of 7.41. With `CN(C)CC(O)CCCCOc1ccc(C(=O)N2CCC(N3C(=O)CCc4ccccc43)CC2)cc1` (centres unmarked) [Example 131, 1-{1-[4-(6-Dimethylamino-5-hydroxyhexyloxy)benzoyl]-4-piperidinyl}-3,4-dihydrocarbostyril] the pIC50 was 7.18. `O=C(CO)NCCCCCOc1ccc(C(=O)N2CCC(N3C(=O)CCc4ccccc43)CC2)cc1` [Example 230, 1-[1-(4-[5-(2-Hydroxyacetylamino)pentyloxy]benzoyl)-4-piperidinyl)-3,4-dihydrocarbostyril] showed a pIC50 of 6.74. Compound `COc1ccc(C(=O)N2CCC(N3C(=O)CCc4ccccc43)CC2)c(OCCCOC(C)=O)c1` [Example 64, 1-{1-[2-(3-Acetoxypropoxy)-4-methoxybenzoyl]-piperidinyl}-3,4-dihydrocarbostyril] has a pIC50 of 6.34. Work on `O=C(c1ccc(OCCCCCN2CCCC2)cc1OCCCCCN1CCCC1)N1CCC(N2C(=O)CCc3ccccc32)CC1` [Example 291] yielded a pIC50 of 7.01. In the case of `CNC(=O)CNc1cc(OC)ccc1C(=O)N1CCC(N2C(=O)CCc3ccccc32)CC1` [Example 105, 1-[1-(4-Methoxy-2-methylaminocarbonylmethylamino)-4-piperidinyl]-3,4-dihydrocarbostyril], the pIC50 was 5.92. For `CCOc1ccc(C(=O)N2CCC(N3C(=O)CCc4c(OC(C)=O)cccc43)CC2)c(OC)c1` [Example 309, 5-Acetoxy-1-[1-(2-Methoxy-4-ethoxybenzoyl)-4-piperidinyl]-3,4-dihydrocarbostyril], the pIC50 was 7.14. `C=CCNCC(=O)NCCCCCOc1ccc(C(=O)N2CCC(N3C(=O)CCc4ccccc43)CC2)cc1` [Example 251] showed a pIC50 of 7.01. With `CCOc1ccc(C(=O)N2CCC(N3C(=O)CCc4c(C)cccc43)CC2)c(OC)c1` [Example 216, 5-Methyl-1-[1-(2-methoxy-4-ethoxybenzoyl)-4-piperidinyl]-3,4-dihydrocarbostyril] the pIC50 was 7.39. Compound `CC(=O)NCC(CCCCOc1ccc(C(=O)N2CCC(N3C(=O)CCc4ccccc43)CC2)cc1)OC(C)=O` (centres unmarked) [Example 176, 1-{1-[4-(5-Acetoxy-6-acetylaminohexyloxy)benzoyl]-4-piperidinyl}-3,4-dihydrocarbostyril] has a pIC50 of 6.89. `CN(C)c1ccc(S(=O)(=O)NCCCCCOc2ccc(C(=O)N3CCC(N4C(=O)CCc5ccccc54)CC3)cc2)cc1` [Example 258, 1-{1-(4-[5-(4-Dimethylaminophenylsulfonylamino)pentyloxy]benzoyl)-4-piperidinyl]-3,4-dihydrocarbostyril] gave a pIC50 of 6.33. Work on `CCOC(=O)CNC(=O)CCCOc1ccc(C(=O)N2CCC(N3C(=O)CCc4ccccc43)CC2)cc1` [Example 8, 1-{1-[4-(3-Ethoxycarbonylmethylaminocarbonylpropoxy)benzoyl]-4-piperidinyl}-3,4-dihydrocarbostyril] yielded a pIC50 of 6.52. With `CN1CCN(CCCOc2ccc(C(=O)N3CCC(N4C(=O)CCc5ccccc54)CC3)cc2)CC1` [Example 136, 1-[1-{4-[3-(4-Methyl-1-piperazinyl)propoxy]benzoyl}-4-piperidinyl]-3,4-dihydrocarbostyril.dioxalate] the pIC50 was 6.74. `C=CCN1CCN(C(=O)CCCCCOc2ccc(C(=O)N3CCC(N4C(=O)CCc5ccccc54)CC3)cc2)CC1` [Example 273, 1-{1-(4-[5-(4-Allyl-1-piperazinylcarbonyl)pentyloxy]benzoyl)-4-piperidinyl}-3,4-dihydrocarbostyril] was tested, and the pIC50 was 7.24. With `O=C(c1ccc(OCCCCCN2CCN(c3ccccn3)CC2)cc1)N1CCC(N2C(=O)CCc3ccccc32)CC1` [Example 234, 1-{1-(4-[5-(4-[2-Pyridyl]-1-piperazinyl)pentyloxy]benzoyl)-4-piperidinyl}-3,4-dihydrocarbostyril] the pIC50 was 6.74. With `CCN(CC)CC(O)COCCCCCOc1ccc(C(=O)N2CCC(N3C(=O)CCc4ccccc43)CC2)cc1` (centres unmarked) [Example 190, 1-{1-[4-(5-(2-Hydroxy-3-diethylaminopropoxy)pentyloxy)benzoyl]-4-piperidinyl}-3,4-dihydrocarbostyril] the pIC50 was 7.48. `COc1cc(Cl)ccc1C(=O)N1CCC(N2C(=O)CCc3ccccc32)CC1` [Example 54, 1-[1-(2-Methoxy-4-chlorobenzoyl)-4-piperidinyl]-3,4-dihydrocarbostyril] was tested, and the pIC50 was 6.57. With `O=C(c1ccc(OCCCN2CCNCC2)cc1)N1CCC(N2C(=O)CCc3ccccc32)CC1` [Example 132, 1-[1-{4-[3-(1-piperazinyl)propoxy]benzoyl}-4-piperidinyl]-3,4-dihyrocarbostyril.dihydrochloride.trihydrate] the pIC50 was 6.80. Compound `O=C(c1cnc2ccccc2c1)N1CCC(N2C(=O)CCc3ccccc32)CC1` [Example 117, 1-[1-(3-quinolylcarbonyl)-4-piperidinyl]-3,4-dihydrocarbostyril] has a pIC50 of 5.82. `O=C(c1ccc2ccccc2c1)N1CCC(N2C(=O)CCc3ccccc32)CC1` [Example 116, 1-[1-(2-Naphthylcarbonyl)-4-piperidinyl]-3,4-dihydrocarbostyril] gave a pIC50 of 6.12. `NC(=O)CCCOc1ccc(C(=O)N2CCC(N3C(=O)CCc4ccccc43)CC2)cc1` [Example 7, 1-{1-[4-(3-Carbamoylpropoxy)benzoyl]-4-piperidinyl}-3,4-dihydrocarbostyril] was tested, and the pIC50 was 6.51. For `NC(=O)CNC(=O)CCCCOc1ccc(C(=O)N2CCC(N3C(=O)CCc4ccccc43)CC2)cc1` [Example 4, 1-{1-[4-(4-Carbamoylmethylaminocarbonylbutoxy)benzoyl]-4-piperidinyl}-3,4-dihydrocarbostyril], the pIC50 was 6.62. Compound `COc1cc(N(C)C)ccc1C(=O)N1CCC(N2C(=O)CCc3ccccc32)CC1` [Example 49, 1-[1-(2-Methoxy-4-dimethylaminobenzoyl)-4-piperidinyl]-3,4-dihydrocarbostyril] has a pIC50 of 6.70. `CCNC(=O)NCCCOc1ccc(C(=O)N2CCC(N3C(=O)CCc4ccccc43)CC2)cc1` [Example 198, 1-{1-[4-(3-Ethylaminocarbonylaminopropoxy)benzoyl]-4-piperidinyl}-3,4-dihydrocarbostyril] was tested, and the pIC50 was 6.49. For `O=C(c1ccc(OCCCN2CCN(c3ccccc3)CC2)cc1)N1CCC(N2C(=O)CCc3ccccc32)CC1` [Example 93, 1-[1-{4-[3-(4-Phenyl-1-piperazinyl)propoxy]benzoyl)-4-piperidinyl]-3,4-dihydrocarbostyril], the pIC50 was 6.19. Compound `CNCC(O)CCCOc1ccc(C(=O)N2CCC(N3C(=O)CCc4ccccc43)CC2)cc1` (centres unmarked) [Example 30, 1-{1-[4-(5-Methylamino-4-hydroxypentyloxy)benzoyl]-4-piperidinyl}-3,4-dihydrocarbostyril] has a pIC50 of 6.48. `C=CCN(C)c1ccc(C(=O)N2CCC(N3C(=O)CCc4ccccc43)CC2)cc1` [Example 90, 1-{1-[4-(N-Allyl-N-methylamino)benzoyl]-4-piperidinyl)-3,4-dihydrocarbostyril] was tested, and the pIC50 was 5.96. For `CC(C)CCNCCCOc1ccc(C(=O)N2CCC(N3C(=O)CCc4ccccc43)CC2)cc1` [Example 167, 1-{1-[4-(3-Isopentylaminopropoxy)benzoyl]-4-piperidinyl}-3,4-dihydrocarbostyril], the pIC50 was 6.55. `O=C(c1ccc(C(F)(F)F)cc1)N1CCC(N2C(=O)CCc3ccccc32)CC1` [Example 106, 1-[1-(4-Trifluoromethylbenzoyl)-4-piperidinyl]-3,4-dihydrocarbostyril] was tested, and the pIC50 was 6.15.

Same assay, conditions: [H]3-Arg-vasopressin 2×10^-10 M, rat liver plasma membrane, 37° C., 10 minutes, pH 8.0
`CN(CC(O)CCCCOc1ccc(C(=O)N2CCC(N3C(=O)CCc4ccccc43)CC2)cc1)CC(O)c1ccccc1` (centres unmarked) [Example 219, 1-{1-[4-(5-Hydroxy-6-[N-methyl-N-(2-hydroxy-4-phenylethyl)amino]hexyloxy)benzoyl]-4-piperidinyl}-3,4-dihydrocarbostyril] was tested, and the pIC50 was 7.22.

Same assay, conditions: [H]3-Arg-vasopressin 2×10^-10 M, rat liver plasma membrane, 37° C., 10 minutes, pH 8.0; read-out: IC50
`COc1cc(SC)ccc1C(=O)N1CCC(N2C(=O)CCc3ccccc32)C1` (centres unmarked) [Example 84, 1-[1-(2-Methoxy-4-methylthiobenzoyl)-3-pyrrolidinyl]-3,4-dihydrocarbostyril] was tested, and the pIC50 was 5.15.
